Where “and” joins values, the source holds several entries; their conditions need not be identical. Equal values may be shown once.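 A five-concentration, 48-hour dose response in 96-well plates underlies each endpoint, interpolated linearly between surrounding concentrations. GI50 marks 50% less growth.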 Calls of active or inactive are those of the source. No stated cut-off is given here; in the data, active = GI50 up to about 1.1 µM and inactive = higher.
Assays:
Assay in all cases: NCI tumour cell line growth inhibition, 48 h
[1] = tested on: UO-31
[2] = tested on: RPMI-8226
[3] = tested on: SF-295
[4] = tested on: HCC 2998
[5] = tested on: NCI/ADR-RES
[6] = tested on: HL-60
[7] = tested on: MOLT-4
[8] = tested on: OVCAR-8
[9] = tested on: SNB-75
[10] = tested on: A498
[11] = tested on: 786-0
[12] = tested on: EKVX
[13] = tested on: NCI-H23
[14] = tested on: TK-10
[15] = tested on: HCT-116
[16] = tested on: U-251
[17] = tested on: SNB-19
[18] = tested on: SK-OV-3
[19] = tested on: RXF 393
[20] = tested on: SN12C

Measured: GI50

C=CC(C)(O)CCC1C(=C)C(O)CC2C(C)(C)CCCC12C (stereo not given)
inactive: [1] 15.2 µM | [2] 20 µM | [3] 21.1 µM | [4] 18.6 µM | [5] 18.5 µM | [6] 14 µM | [7] 14.2 µM | [8] 26.1 µM | [9] 48.3 µM | [10] 18.3 µM | [11] 18.6 µM | [12] 19.1 µM | [13] 18.7 µM | [14] 20 µM | [15] 17.9 µM | [16] 15.5 µM | [17] 18.1 µM | [18] 33.3 µM | [19] 14.3 µM | [20] 18.9 µM

NCS(=O)(=O)O
inactive: [1] > 100 µM | [2] > 100 µM | [3] > 100 µM | [4] > 100 µM | [5] > 100 µM | [6] > 100 µM | [7] > 100 µM | [8] > 100 µM | [9] > 100 µM | [10] > 100 µM | [11] > 100 µM | [12] > 100 µM | [13] > 100 µM | [14] > 100 µM | [15] > 100 µM | [16] > 100 µM | [17] > 100 µM | [18] > 100 µM | [19] > 100 µM | [20] > 100 µM

CN(C)CCNC1=CC(=O)c2c(O)ccc(O)c2C1=O
inactive: [1] 12.4 µM | [2] 7.52 µM | [3] 11.4 µM | [4] 3.88 µM | [5] 2.58 µM | [6] 1.95 µM | [7] 5.14 µM | [8] 4.39 µM | [9] 17.1 µM | [10] 14.8 µM | [11] 4.7 µM | [12] 12.8 µM | [13] 4.98 µM | [14] 14.4 µM | [15] 2.8 µM | [16] 11.9 µM | [17] 16 µM | [18] 28.6 µM | [19] 14.2 µM | [20] 6.47 µM

NS(=O)(=O)c1ccc(N=C2C(=O)Nc3ccccc32)cc1
inactive: [1] > 100 µM | [2] > 100 µM | [3] > 100 µM | [4] > 100 µM | [5] > 100 µM | [6] > 100 µM | [7] > 100 µM | [8] > 100 µM | [9] > 100 µM | [10] > 100 µM | [11] > 100 µM | [12] > 100 µM | [13] > 100 µM | [14] > 100 µM | [15] > 100 µM | [16] > 100 µM | [17] > 100 µM | [18] > 100 µM | [19] > 100 µM | [20] > 100 µM

N#CC(NNC(=O)Cc1ccccc1)c1ccccc1O (stereo not given)
inactive: [1] 4.54 µM | [2] 6.87 µM | [3] 9.68 µM | [4] 12.7 µM | [5] 3.93 µM | [6] 3.35 µM | [7] 3.72 µM | [8] 12.3 µM | [9] 21.3 µM | [10] > 48.9 µM | [11] 8.75 µM | [12] 8.41 µM | [13] 9.23 µM | [14] 24.2 µM | [15] 7.26 µM | [16] 6.15 µM | [17] 21.3 µM | [18] 14.5 µM | [19] 24.7 µM | [20] 23.3 µM

CC(C)O/N=C/c1cc(NC(=S)OC(C)C)ccc1Cl
inactive: [1] 21.7 µM | [2] 13.8 µM | [3] 25.2 µM | [4] 45.2 µM | [5] 35.5 µM | [6] 20.4 µM | [7] 15.8 µM | [8] 36.9 µM | [9] 18.5 µM | [10] 44.7 µM | [11] 33.3 µM | [12] 19.1 µM | [13] 43.9 µM | [14] > 58.6 µM | [15] 23.3 µM | [16] 32.2 µM | [17] > 54.8 µM | [18] 38.8 µM | [19] 20.6 µM | [20] 31.6 µM

Cc1nc2c(Br)cc(Br)cc2c(=O)n1-c1ccccc1NC1OC(CO)C(O)C(O)C1O (stereo not given)
inactive: [1] > 100 µM | [2] > 100 µM | [3] > 100 µM | [4] > 100 µM | [5] > 100 µM | [6] > 100 µM | [7] > 100 µM and 79.1 µM | [8] > 100 µM | [9] 61.1 µM | [10] > 100 µM | [11] > 100 µM | [12] > 100 µM | [13] > 100 µM | [14] > 100 µM | [15] > 100 µM | [16] > 100 µM | [17] > 100 µM | [18] > 100 µM | [19] > 100 µM | [20] > 100 µM

Reference: ChEMBL document CHEMBL1201862, “PubChem BioAssay data set” (2004)
